Laboratory results as given in article PMC8041284, “Tunable Methacrylamides for Covalent Ligand Directed Release Chemistry” (Journal of the American Chemical Society, 2021).
Where a SMILES comes first, the peptide text is derived from it.

Biological target: BTK (Homo sapiens, UniProt Q06187)
Assay: biochemical
Details: read-out: BTK inhibition (%)

Chain of BTK (Q06187 402-655 limits assumed): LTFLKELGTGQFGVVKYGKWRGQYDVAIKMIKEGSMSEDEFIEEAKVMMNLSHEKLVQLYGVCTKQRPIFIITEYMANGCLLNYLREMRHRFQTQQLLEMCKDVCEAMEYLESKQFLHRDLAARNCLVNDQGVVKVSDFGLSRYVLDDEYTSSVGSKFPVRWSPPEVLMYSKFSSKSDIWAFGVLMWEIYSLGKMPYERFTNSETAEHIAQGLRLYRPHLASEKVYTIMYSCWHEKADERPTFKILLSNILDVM

Work on `NC(=O)CN1CC(c2ccccc2)CC1=O` (stereo not drawn) [PCM-0216067] yielded an inhibition at 10 µM of 10%.

Same assay, conditions: read-out: BTK inhibition (%), 0.75 uM BTK, […] probe 3l, 15 min preincubation

In order of falling inhibition at 10 µM:
1. Cc1c[nH]c(/C=C2\C(=O)Nc3ccccc32)c1CCC(=O)O [PCM-0216652]  83.4%
2. COc1cc(Nc2ncc3c(n2)-c2ccc(Cl)cc2C(c2c(F)cccc2OC)=NC3)ccc1C(=O)O [PCM-0094940]  83.4%
3. O=C1NC(=O)/C(=C/c2ccc(-c3ccc(F)cc3O)o2)S1 [PCM-0064686]  82.8%
4. COc1cc(CCc2cc(NC(=O)c3ccc(N4C[C@@H](C)N[C@@H](C)C4)cc3)n[nH]2)cc(OC)c1 [PCM-0095396]  58.6%
5. Cc1[nH]c2ccccc2c1C1=C(NCCc2ccc(F)cc2)C(=O)N(C)C1=O [PCM-0215349]  51.7%
6. O=c1c(O)c(-c2ccc(O)c(O)c2)oc2cc(O)ccc12 [PCM-0094846]  46.7%
7. O=C(O)c1c[nH]c2cc(Cl)c(-c3ccc(C4(O)CCC4)cc3)cc12 [PCM-0215881]  24.7%
8. NC[C@H]1O[C@H](O[C@H]2[C@H](O)[C@@H](O[C@H]3O[C@H](CO)[C@@H](O)[C@H](N)[C@H]3O)[C@H](N)C[C@@H]2N)[C@H](O)[C@@H](O)[C@@H]1O [PCM-0086137]  23.8%
9. CNC(=O)CN1CCC(Oc2cc3c(Nc4cccc(Cl)c4F)ncnc3cc2OC)CC1 [PCM-0095236]  23.4%
10. Cc1cc(=O)c(C(=O)N[C@@H](C(=O)N[C@@H]2C(=O)N3C(C(=O)O)=C(CSc4nnnn4C)CS[C@H]23)c2ccc(O)cc2)c[nH]1 [PCM-0216260]  23.2%
11. CN(C)CC[C@H](CSc1ccccc1)Nc1ccc(S(=O)(=O)NC(=O)c2ccc(N3CCN(Cc4ccccc4-c4ccc(Cl)cc4)CC3)cc2)cc1[N+](=O)[O-] [PCM-0095734]  19.3%
12. C=C1C(=O)O[C@H]2[C@H]1CC/C(C)=C/CC[C@@]1(C)O[C@@H]21 [PCM-0214682]  18.7%
13. CN(C)CCc1c[nH]c2ccc(C[C@H]3COC(=O)N3)cc12 [PCM-0090594]  17.1%
14. CNCc1cc(-c2ccccc2F)n(S(=O)(=O)c2cccnc2)c1 [PCM-0095606]  17%
15. C[C@@H]1C(=O)O[C@H]2[C@@H](O)[C@@]34[C@H]5C[C@@H](C(C)(C)C)[C@]36[C@@H](OC(=O)[C@@H]6O)O[C@@]4(C(=O)O5)[C@@]12O [PCM-0214615]  16.3%
16. CS(=O)(=O)c1ccc(-c2cnc(N)c(C(=O)Nc3ccccc3)n2)cc1 [PCM-0095599]  10.3%
17. Cn1cc(C2=C(c3cn(C4CCN(Cc5ccccn5)CC4)c4ccccc34)C(=O)NC2=O)c2ccccc21 [PCM-0094982]  10.3%
18. CCOC(=O)/C=C\C(=O)OCC [PCM-0215691]  10.1%
19. CCOC(=O)c1cc(O)c(O)c(O)c1 [PCM-0216263]  9.3%
20. Cc1cccc(Nc2cc(Cl)nc(SCC(=O)O)n2)c1C [PCM-0095617]  7.7%
21. CC/C(=C(\c1ccccc1)c1ccc(OCCN(C)C)cc1)c1ccccc1 [PCM-0064738]  7.6%
22. OC[C@H]1O[C@@](CO)(OC[C@@]2(OC[C@@]3(OC[C@@]4(O[C@H]5O[C@H](CO)[C@@H](O)[C@H](O)[C@H]5O)O[C@H](CO)[C@@H](O)[C@@H]4O)O[C@H](CO)[C@@H](O)[C@@H]3O)O[C@H](CO)[C@@H](O)[C@@H]2O)[C@@H](O)[C@@H]1O [PCM-0216335]  6.9%
23. CC[C@@H]1/C=C(\C)C[C@H](C)C[C@H](OC)[C@H]2O[C@@](O)(C(=O)C(=O)N3CCCC[C@H]3C(=O)O[C@H](/C(C)=C/[C@@H]3CC[C@@H](O)[C@H](OC)C3)[C@H](C)[C@@H](O)CC1=O)[C@H](C)C[C@@H]2OC [PCM-0215308]  6.9%
24. COC(=O)[C@H](Cc1ccccc1)NC(=O)[C@@H](N)CC(=O)O [PCM-0214708] (H-Asp-Phe-OMe)  6.2%
25. CCCCCCNC(=O)Nc1ccc(S(=O)(=O)Nc2ccc(CCNC[C@H](O)COc3ccc(O)cc3)cc2)cc1 [PCM-0215659]  5.4%
26. COc1cc2nccc(Oc3ccc(NC(=O)Nc4ccc(F)cc4F)c(F)c3)c2cc1OC [PCM-0094996]  4.8%
27. O=C(CCc1ccc(O)cc1)c1c(O)cc(O)cc1O[C@@H]1O[C@H](CO)[C@@H](O)[C@H](O)[C@H]1O [PCM-0089058]  4.7%
28. Cc1cc(CN2CCN(c3c(Br)cnc4nc(-c5ccc(N6CCN(C)CC6)cc5)[nH]c34)CC2)no1 [PCM-0095479]  4.3%
29. C=C(C)[C@@H]1CC[C@]2(C(=O)O)CC[C@]3(C)[C@H](CC[C@@H]4[C@@]5(C)CC[C@H](O)C(C)(C)[C@@H]5CC[C@]43C)[C@@H]12 [PCM-0214730]  3.9%
30. CO[C@H]1O[C@@H]2O[C@@]3(C)CC[C@H]4[C@H](C)CC[C@@H]([C@H]1C)[C@@]24OO3 [PCM-0214640]  3.1%
31. COc1ccccc1-c1cc(Nc2cccc(CS(N)(=O)=O)c2)ncn1 [PCM-0095804]  2.8%
32. Cc1ccccc1-c1cc(N2CCN(C)CC2)ncc1N(C)C(=O)C(C)(C)c1cc(C(F)(F)F)cc(C(F)(F)F)c1 [PCM-0215667]  2.6%
33. CSC[C@H](N)C(=O)O [PCM-0215958]  2.6%
34. C[C@@H](c1ncncc1F)[C@](O)(Cn1cncn1)c1ccc(F)cc1F [PCM-0214624]  2.3%
35. CC1CCC(C(=O)N(c2cc(C#CC(C)(C)C)sc2C(=O)O)C2CCC(O)CC2)CC1 (stereo not drawn) [PCM-0095160]  2.3%
36. CC(=O)Nc1ccc(OC(=O)c2ccccc2OC(C)=O)cc1 [PCM-0216013]  2.1%
37. OCc1ccc(-c2ccc(-c3ccc(CO)s3)o2)s1 [PCM-0095348]  1.6%
38. C[C@@H](NCCc1ccc(O)cc1)[C@@H](O)c1ccc(O)cc1 [PCM-0214689]  0%
39. C[C@]12CC[C@H](O)CC1=CC[C@@H]1[C@@H]2CC[C@]2(C)C(n3cnc4ccccc43)=CC[C@@H]12 [PCM-0095399]  0%
40. O=C(O)C(O)C(O)C(=O)O (stereo not drawn) [PCM-0215711]  -0.9%
41. CN(C)c1cccc(-c2c3c(=O)n(-c4ccccc4Cl)[nH]c3cc(=O)n2C)c1 [PCM-0215425]  -1.4%
42. C[C@H](C(=O)O)c1ccc(-c2ccccc2)c(F)c1 [PCM-0095117]  -2.1%
43. CCC[C@H](NC(=O)[C@@H]1[C@H]2CCC[C@H]2CN1C(=O)[C@@H](NC(=O)[C@@H](NC(=O)c1cnccn1)C1CCCCC1)C(C)(C)C)C(=O)C(=O)NC1CC1 [PCM-0214791]  -3.1%
44. Cc1c(OCC(F)(F)F)ccnc1C[S+]([O-])c1nc2ccccc2[nH]1 (stereo not drawn) [PCM-0065586]  -3.9%
45. Nc1cc(C(F)(F)F)c(-c2cc(N3CCOCC3)nc(N3CCOCC3)n2)cn1 [PCM-0095286]  -4.1%
46. CO/N=C(\C(=O)N[C@@H]1C(=O)N2C(C(=O)OCOC(=O)C(C)(C)C)=C(C)CS[C@H]12)c1csc(N)n1 [PCM-0216124]  -4.7%
47. O=C1C(N(CO)C(=O)NCO)N(CO)C(=O)N1CO (stereo not drawn) [PCM-0216098]  -5.4%
48. CC(C)n1nc(-c2ccc3oc(N)nc3c2)c2c(N)ncnc21 [PCM-0095423]  -6.2%
49. COc1ccc(C(=O)C2CCN(CC(=O)N(Cc3nc4c(c(=O)[nH]3)COCC4)CC3CC3)CC2)cc1 [PCM-0215580]  -6.9%
50. C[C@H]1O[C@H](O[C@H]2[C@H](O)[C@@H](O)[C@@H](O[C@@H]([C@H](O)[C@@H](O)C=O)[C@H](O)CO)O[C@@H]2CO)[C@H](O)[C@@H](O)[C@@H]1N[C@H]1C=C(CO)[C@@H](O)[C@H](O)[C@H]1O [PCM-0214720]  -7%
51. Cc1cncc(CN2CCC(=C3c4ccc(Cl)cc4CCc4cccnc43)CC2)c1 [PCM-0095542]  -7.6%
52. CCCCC(C)(O)C/C=C/[C@H]1[C@H](O)CC(=O)[C@@H]1CCCCCCC(=O)OC (stereo partly drawn) [PCM-0215257]  -7.8%
53. O=C(O)C(Cl)Cl [PCM-0215858]  -8.5%
54. COc1ccc2cc(C(=O)O)ccc2c1 [PCM-0216054]  -9.3%
55. CNC[C@H](O)c1ccc(O)c(O)c1 [PCM-0065121]  -9.3%
56. C=C(C)[C@@H]1CC[C@]2(C)CC[C@]3(C)[C@H](CC[C@@H]4[C@@]5(C)CC[C@H](O)C(C)(C)[C@@H]5CC[C@]43C)[C@@H]12 [PCM-0215902]  -9.4%
57. COc1c(C)cnc(Cn2cnc3c(Cl)nc(N)nc32)c1C [PCM-0095047]  -10.3%
58. Cn1cc(C[C@@H](N)C(=O)O)c2ccccc21 [PCM-0215432]  -11.1%
59. COc1cc2nc(N3CCN(C(=O)C4COc5ccccc5O4)CC3)nc(N)c2cc1OC (stereo not drawn) [PCM-0065300]  -11.7%
60. Cc1ncc(NC(=O)c2cccc(C(F)(F)F)c2)cc1-c1cnc(OC2CCOCC2)c(N2CCOCC2)c1 [PCM-0216049]  -13.1%
61. COc1cc2c(cc1OC)C1Cc3ccc(OC)c(OC)c3CN1CC2 (stereo not drawn) [PCM-0088127]  -14%
62. CCCNC(C)C(=O)Nc1ccccc1C (stereo not drawn) [PCM-0065518]  -16.3%
63. Cc1cc(C)cc(Oc2ccc(CNC(=O)[C@H](C)N)cc2C)c1 [PCM-0215829]  -17.8%
64. O=C(CCCCCCNC(=O)c1cnc(N(c2ccccc2)c2ccccc2)nc1)NO [PCM-0095595]  -18.5%
65. Cn1c(N2CCCCS2(=O)=O)nc(C(=O)NCc2ccc(F)cc2)c(O)c1=O [PCM-0094999]  -20.2%
66. CC[C@H]1OC(=O)[C@H](C)[C@@H](O[C@H]2C[C@@](C)(OC)[C@@H](O)[C@H](C)O2)[C@H](C)[C@@H](O[C@@H]2O[C@H](C)C[C@H](N(C)C)[C@H]2O)[C@](C)(O)C[C@@H](C)C(=O)[C@H](C)[C@H]2OC(=O)O[C@@]21C [PCM-0215364]  -20.8%
67. COc1cccc(CCc2ccccc2OCC(CN(C)C)OC(=O)CCC(=O)O)c1 (stereo not drawn) [PCM-0214923]  -22.6%
68. C[C@@H](OC[C@@]1(c2ccccc2)CC[C@]2(CCC(=O)N2)CN1)c1cc(C(F)(F)F)cc(C(F)(F)F)c1 [PCM-0216647]  -48.6%
